Data reported in patent US20240398823A1, “DUAL INHIBITOR OF HISTONE DEACETYLASE 6 AND HEAT SHOCK PROTEIN 90” (TAIPEI MEDICAL UNIVERSITY, priority 2021, published 2024).

Legend:
[1] = system: PD-L1 and IDO expression in HCT116 and CT26 cell lines; experiment: Western blot of IFN-γ-induced PD-L1 and IDO, STAT1 pathway, in HCT116 and CT26; type: cell-based, human; mouse; settings: HCT116 and CT26, 48 hours, via p-STAT1 and STAT1
Experimental: The cells were tested in 6-well plates with 32×10^4 cells/well and co-treated with Compound 75 for 48 hours and analyzed by flow cytometry. Bar, SD.
The effects of the HSP90/HDAC6 dual inhibitors as described in Synthesis Examples (such as Compounds 63, 64, and 66 to 76) on several factors were evaluated. Cells were lysed in RIPA buffer (Thermo Fisher Scientific, Wal-tham, MA, USA) and protease inhibitor (Roche, Basel, CH). Sample were further separated in 8% or 15% SDS-PAGE and transferred to nitrocellulose membrane and blocked with 5% skim milk (w/v in PBS). Nitrocellulose membranes were then incubated with primary antibodies against the following antigens: HSP90, Src, AKT, Rb, phosphorylated Rb (p-Rb), FAK, HSP70, α-tubulin acetylation, acetyl histone H3, phosphorylated STAT1 (p-STAT1), STAT1 (Cell signaling, Danvers, MA, USA), α-tubulin, Histone H3 (Genetex, Irvine, USA), IDO (Santa Cruz Biotechnology Dallas, TX, USA) and PD-L1 (Novus, Littleton, CO, USA) at 4° C. for overnight. The target proteins were visualized by using HRP-conjugated secondary antibodies (Jackson ImmunoResearch Laboratories, West Grove, PA, USA) and enhanced chemiluminescence kit (Thermo Fisher Scientific, Waltham, MA, U.S.A.).
Using western blot, whether Compound 75 reduced […]-induced PD-L1 and IDO performance by inhibiting STAT1 pathway was evaluated.

[2] = system: CT26 tumor; experiment: CT26 tumor model, Compound 75 combined with CPT-11; type: in vivo, mouse; settings: Compound 75 50 mg/kg plus CPT-11 20 mg/kg
Experimental: CT26 was injected subcutaneously into immunocompetent mice (BALB/c). The mice were treated with CPT-11 or combined Compound 75 with CPT-11 when the tumor grew to 50-100 mm^3. CPT-11 was given at 20 mg/kg for 7 consecutive days; compound 75 was given at 50 mg/kg every 2 days (8 doses in total, with suspension after day 14). […] Bar, S.E.M.
Whether Compound 75 could enhance the tumor suppressive effect of chemotherapeutic agents was evaluated. Control (vehicle), CPT-11 (20 mg/kg), or Compound 75 (50 mg/kg) was administered in combination with CPT-11 to mice and sacrificed them on day 25 as shown in FIG. 13A.

[3] = system: colorectal cancer tumors (CT26); experiment: CT26 tumor model, Compound 75 and Anti-PD1 alone and combined; type: in vivo
[4] = system: PD-L1 expression in HCT116, LS174T, Mia paca-2, BXPC3, A549 and CT26 cells; experiment: IFN-γ-induced cell membrane PD-L1 in different cancer cell lines by flow cytometry; type: cell-based, human; mouse; settings: Mia paca-2, BXPC3, A549, CT26, co-treated 48 hours
Experimental: The cells were tested in 6-well plates with 32×10^4 cells/well and co-treated with Compound 75 for 48 hours and analyzed by flow cytometry. Bar, SD. […] The effects of the HSP90/HDAC6 dual inhibitors as described in Synthesis Examples (such as Compounds 63, 64, and 66 to 76) on PD-L1 expression were evaluated. Cells were seeded in 6-well plates (3.2×10^5 cells/well) and treated on the next day with […] and compounds or DMSO (vehicle) at indicated concentrations for 48 h. The treated cells were suspended (3×10^5 cells/tube) and stained with PD-L1 antibody (Invitrogen, Waltham, USA) and FITC-conjugated secondary antibodies on ice for 1 h. The fluorescence signal of the cells was analyzed by FASCalibur flow cytometer and CellQuest software (BD Biosciences, San Jose, CA, USA). Using flow cytometry, whether Compound 75 could downregulate […]-induced PD-L1 performance in different cancer cell lines was evaluated, namely human colorectal cancer cell lines (HCT116 and LS174T), human pancreatic cancer cell lines (Mia paca-2 and BXPC3), human lung cancer cell line (A549) and mouse colorectal cancer cell line (CT26).

[5] = Toxicity, body weight and blood counts in BALB/c mice with CT26 tumors; type: in vivo
[6] = target: T1, HSP90β (Homo sapiens, UniProt P08238); experiment: HSP90 inhibition assay, FITC-geldanamycin competition fluorescence polarization, HSP90β; type: binding; settings: FITC-GM competition
T1 construct: Reaction Biology Corporation (ran the assay as a service)

[7] = system: CD8 cells and granzyme B in mouse tumor area; experiment: IHC of CD8 cell infiltration and granzyme B in CT26 tumor area; type: in vivo; settings: CT26 tumors, day 25, IHC, 10, 25, 50 mg/kg
Experimental: The tumors were removed from mice on day 25 and embedded in paraffin and sectioned for immunohistochemical staining. […] Bar, SD.
The effects of the HSP90/HDAC6 dual inhibitors as described in Synthesis Examples (such as Compounds 63, 64, and 66 to 76) on several factors were evaluated. IHC-Paraffin: Tumor tissues were excised from the mice, fixed in 4% formaldehyde solution in PBS, and embedded in paraffin. Sections of 4-5 μm were cut and placed in an oven at 60° C. for overnight. After deparaffinizing and rehydrating the section, the antigen retrieval was performed with citrate buffer (10 mM citrate acid, pH 6) or Tris buffer (10 mM Tris, 1 mM EDTA, pH9) by autoclave for 30 min at 121 C. The sections were blocked with 10% goat serum and then incubated with primary antibodies against the following antigens: IDO (Santa Cruz Biotechnology Dallas, TX, USA), CD8 (Novus, Littleton, CO, USA) and granzyme B (Abcam, Cambridge, UK) at 4 C for overnight. […] Images of the tumor tissues sections were captured by Mirax Scan (CARL ZEISS, Germany) or TissueFAXS (Vienna, Austria) and analyzed by HistoQuest software (Vienna, Austria).
It is known that TME blocks the infiltration of functional immune cells into the tumor area. The effects of Compound 75 on CD8 cell infiltration in the tumor area were evaluated. […] Therefore, the ability of CD8+ T cells to secrete granzyme B was evaluated.

[8] = Anti-PD1 combination study, Compound 75 50 mg/kg/2 days
[9] = CT26 in Balb/c, 10, 25, 50 mg/kg i.v. every two days

T1 sequence (P08238 whole entry): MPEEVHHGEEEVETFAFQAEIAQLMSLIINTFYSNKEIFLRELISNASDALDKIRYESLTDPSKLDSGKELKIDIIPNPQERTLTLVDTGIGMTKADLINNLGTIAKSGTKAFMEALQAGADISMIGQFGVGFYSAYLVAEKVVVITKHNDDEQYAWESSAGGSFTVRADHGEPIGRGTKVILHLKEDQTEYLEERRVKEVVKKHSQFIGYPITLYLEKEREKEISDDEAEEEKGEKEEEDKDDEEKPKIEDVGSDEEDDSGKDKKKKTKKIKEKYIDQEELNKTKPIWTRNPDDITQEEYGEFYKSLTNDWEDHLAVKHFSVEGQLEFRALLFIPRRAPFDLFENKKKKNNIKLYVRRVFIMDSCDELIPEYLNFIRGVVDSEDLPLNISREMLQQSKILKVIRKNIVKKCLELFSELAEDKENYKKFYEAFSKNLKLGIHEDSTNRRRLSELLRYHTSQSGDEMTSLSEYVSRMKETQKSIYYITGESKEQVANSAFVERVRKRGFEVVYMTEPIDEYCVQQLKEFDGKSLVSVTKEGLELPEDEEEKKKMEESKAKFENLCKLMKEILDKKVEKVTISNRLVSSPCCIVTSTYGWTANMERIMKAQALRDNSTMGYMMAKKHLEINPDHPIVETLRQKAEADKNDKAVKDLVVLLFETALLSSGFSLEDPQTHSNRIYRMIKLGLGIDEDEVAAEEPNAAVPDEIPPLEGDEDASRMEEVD

Structure (SMILES): COc1ccc(N(Cc2ccc(C(=O)NO)cc2)C(=O)c2cc(C(C)C)c(O)cc2O)cc1 [Compound 75, 2,4-Dihydroxy-N-(4-hydroxycarbamoyl-benzyl)-5-isopropyl-N-(4-methoxy-phenyl)-benzamide]
- IFN-γ-induced PD-L1 and IDO expression [1]: downregulated PD-L1 and IDO expression
- body weight, combined therapy versus CPT-11 alone [2]: no significant difference
- tumor suppressive effect in combination with CPT-11 ([2]; day 25): significantly enhanced the effect of CPT-11 therapy
- body weight [3, 8]: no significant change in body weight
- toxicity to mice [3, 8]: not significantly toxic
- treatment effect on CT26 tumor, agent alone ([3]; Compound 75 50 mg/kg/2 days or Anti-PD1 200 μg alone): limited
- tumor growth, combined treatment with Anti-PD1 ([3]; Compound 75 50 mg/kg/2 days plus Anti-PD1 200 μg): significantly inhibited tumor growth
- IFN-γ-induced cell membrane protein PD-L1 expression [4]: inhibits all IFN-7-induced cell membrane protein PD-L1 expression
- body weight [5, 9]: no significant change in body weight
- toxicity in mice [5, 9]: no significant toxicity
- white blood cell, lymphocyte, red blood cell, hemoglobin and platelet counts, lymphocyte percentage ([5]; blood from heart on day 25, 10, 25, 50 mg/kg every two days, versus control group): not significantly different
- organ toxicity or hematotoxicity ([5]; immunocompetent mice): does not cause significant organ toxicity or hematotoxicity
- IC50 [6]: 0.0669 µM
- CD8 immune cell infiltration in the mouse tumor area [7]: significantly increased
- granzyme B secretion [7]: concentration-dependent increase
